Here are results for 32 molecules from ChEMBL document CHEMBL1136988, “1-amino-4-benzylphthalazines as orally bioavailable smoothened antagonists with antitumor activity” (J Med Chem, 2009).

Usually IC50 stands for the concentration that gives 50% inhibition.

Test [1] deals with T1, Protein smoothened (Mus musculus, UniProt P56726). As to the kind of experiment: Displacement of [3H]3-chloro-4,7-difluoro-N-(4-methoxy-3-(pyridin-4-yl)benzyl)-N-(4-(methylamino)cyclohexyl)benzo[b]thiophene-2-carboxamide from mouse Smoothened receptor expressed in CHO-K1 cells by membrane filter binding assay. The test is classed as cell-based. In general terms: Loss of bound radioactivity is the signal in a displacement assay; it reports binding, not function.

Test [2] addresses T1, Protein smoothened. Format: cell-based, TM3.
Description: Inhibition of Smoothened receptor in mouse TM3 cells transfected with pTA-8xGli-Luc reporter gene assessed as inhibition of 25 nM 3-chloro-4,7-difluoro-N-(4-methoxy-3-(pyridin-4-yl)benzyl)-N-(4-(methylamino)cyclohexyl)benzo[b]thiophene-2-carboxamide-induced Hedgehog pathway activation by Gli shift assay
In test [3] the target is Protein smoothened (Homo sapiens, UniProt Q99835). Put plainly: Displacement of [3H]3-chloro-4,7-difluoro-N-(4-methoxy-3-(pyridin-4-yl)benzyl)-N-(4-(methylamino)cyclohexyl)benzo[b]thiophene-2-carboxamide from human Smoothened receptor expressed in CHO-K1 cells by membrane filter binding assay. The test is classed as cell-based.
Test [4] addresses T1, Protein smoothened. Put plainly: Inhibition of Smoothened receptor in mouse TM3 cells transfected with pTA-8xGli-Luc reporter gene assessed as inhibition of 1 nM 3-chloro-4,7-difluoro-N-(4-methoxy-3-(pyridin-4-yl)benzyl)-N-(4-(methylamino)cyclohexyl)benzo[b]thiophene-2-carboxamide-induced Hedgehog pathway activation by Gli shift assay. Format: cell-based. (In general: Reporter assays use an easily measured gene product as a stand-in for the process of interest.)

Chain of Protein smoothened (Homo sapiens, UniProt Q99835) (Q99835 whole entry): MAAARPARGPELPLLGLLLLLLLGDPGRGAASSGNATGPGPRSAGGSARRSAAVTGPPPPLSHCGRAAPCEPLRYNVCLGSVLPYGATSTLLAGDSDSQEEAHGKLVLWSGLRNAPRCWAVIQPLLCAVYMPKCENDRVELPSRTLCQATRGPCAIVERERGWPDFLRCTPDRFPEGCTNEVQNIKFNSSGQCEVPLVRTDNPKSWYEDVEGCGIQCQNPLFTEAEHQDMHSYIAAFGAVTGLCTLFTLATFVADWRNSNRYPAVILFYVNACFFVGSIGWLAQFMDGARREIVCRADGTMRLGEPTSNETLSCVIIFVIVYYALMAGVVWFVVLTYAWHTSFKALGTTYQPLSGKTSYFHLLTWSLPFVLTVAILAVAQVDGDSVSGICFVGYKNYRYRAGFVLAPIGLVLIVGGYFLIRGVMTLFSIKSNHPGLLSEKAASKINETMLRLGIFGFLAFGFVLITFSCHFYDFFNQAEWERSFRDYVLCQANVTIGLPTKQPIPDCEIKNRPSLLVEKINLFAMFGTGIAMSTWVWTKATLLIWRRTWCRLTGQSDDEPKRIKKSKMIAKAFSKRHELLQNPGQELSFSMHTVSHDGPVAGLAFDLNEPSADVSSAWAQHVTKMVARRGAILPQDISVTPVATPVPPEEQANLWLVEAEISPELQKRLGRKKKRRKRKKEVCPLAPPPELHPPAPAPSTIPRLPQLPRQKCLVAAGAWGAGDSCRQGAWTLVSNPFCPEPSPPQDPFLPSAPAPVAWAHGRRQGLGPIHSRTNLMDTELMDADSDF
T1 sequence (P56726 whole entry): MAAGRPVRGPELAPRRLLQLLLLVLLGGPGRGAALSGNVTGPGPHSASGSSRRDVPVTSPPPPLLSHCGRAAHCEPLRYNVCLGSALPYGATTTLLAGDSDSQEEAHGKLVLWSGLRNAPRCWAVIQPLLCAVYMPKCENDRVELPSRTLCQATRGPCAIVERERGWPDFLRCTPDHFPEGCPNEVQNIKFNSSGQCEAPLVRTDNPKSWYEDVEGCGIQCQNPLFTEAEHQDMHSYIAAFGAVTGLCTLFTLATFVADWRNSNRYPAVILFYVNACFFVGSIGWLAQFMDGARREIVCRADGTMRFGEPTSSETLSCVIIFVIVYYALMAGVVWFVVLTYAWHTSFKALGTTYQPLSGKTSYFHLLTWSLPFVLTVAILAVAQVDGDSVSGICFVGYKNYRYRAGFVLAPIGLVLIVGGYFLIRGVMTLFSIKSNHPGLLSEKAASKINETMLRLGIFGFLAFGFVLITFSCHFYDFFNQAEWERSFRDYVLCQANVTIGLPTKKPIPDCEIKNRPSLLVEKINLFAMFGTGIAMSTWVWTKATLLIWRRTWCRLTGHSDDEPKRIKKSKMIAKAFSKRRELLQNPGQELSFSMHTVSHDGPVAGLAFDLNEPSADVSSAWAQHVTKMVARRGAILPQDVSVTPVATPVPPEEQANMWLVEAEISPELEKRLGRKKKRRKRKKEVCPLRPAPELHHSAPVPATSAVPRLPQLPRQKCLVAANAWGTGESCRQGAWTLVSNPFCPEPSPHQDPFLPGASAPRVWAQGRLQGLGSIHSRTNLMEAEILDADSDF

As for `N#Cc1ccc(N2CCN(c3cnc(Cc4ccccc4)c4ccccc34)CC2)nc1`, the 50% inhibitory concentration (IC50) was above 5000 nM at Protein smoothened [1], 2500 nM on Protein smoothened [2], above 5000 nM on Protein smoothened [3] and 910 nM on Protein smoothened [4].

On to `FC(F)(F)c1ccc(N2CCN(c3nnc(Cc4ccccc4)c4ccoc34)CC2)nc1`, for which the half-maximal inhibitory concentration (IC50) on Protein smoothened [1] was above 5000 nM; against Protein smoothened [2], above 5000 nM; at Protein smoothened [3], above 5000 nM; on Protein smoothened [4], 1800 nM.

As for `CC(O)(CO)c1ccc(N2CCN(c3nnc(Cc4ccccc4)c4ccccc34)CC2)nc1` (racemic), the IC50 at Protein smoothened [1] was determined as 28 nM; at Protein smoothened [2], 136 nM; on Protein smoothened [3] it was 70 nM; at Protein smoothened [4], 17 nM.

Turning to `N#Cc1ccc(N2CCN(c3nnc(Cc4ccc(Cl)cc4)c4ccccc34)CC2)nc1`, the IC50 came out at 20 nM at Protein smoothened [1], 498 nM against Protein smoothened [2], 25 nM on Protein smoothened [3] and 48 nM on Protein smoothened [4].

With `O=C(O)c1ccc(N2CCN(c3nnc(Cc4ccccc4)c4ccccc34)CC2)nc1`, the concentration for half-maximal inhibition (IC50) on Protein smoothened [1] was 1640 nM; at Protein smoothened [2], above 5000 nM; on Protein smoothened [3], 2260 nM; on Protein smoothened [4], 2670 nM.

Turning to `N#Cc1ccc(N2CCN(c3nnc(Cc4ccccc4)c4ccccc34)CC2)nc1`, the half-maximal inhibitory concentration (IC50) on Protein smoothened [1] amounted to 71 nM; on Protein smoothened [2], 821 nM; at Protein smoothened [3] it was 112 nM; at Protein smoothened [4] it was 69 nM.

In the case of `CN(C)Cc1ccc(N2CCN(c3nnc(Cc4ccccc4)c4ccccc34)CC2)nc1`, the IC50 on Protein smoothened [1] was 287 nM; on Protein smoothened [2] it was 246 nM; on Protein smoothened [3], 654 nM; at Protein smoothened [4] it was 14 nM.

Turning to `CC(C)(N)c1ccc(N2CCN(c3nnc(Cc4ccccc4)c4ccccc34)CC2)nc1`, the IC50 on Protein smoothened [1] is 6 nM; at Protein smoothened [2], 42 nM; at Protein smoothened [3] it was 15 nM; at Protein smoothened [4], 1.3 nM.

In the case of `N#Cc1ccc(N2CCN(c3nnc(Cc4ccc(C(=O)O)cc4)c4ccccc34)CC2)nc1`, the IC50 on Protein smoothened [1], against Protein smoothened [2], on Protein smoothened [3] and at Protein smoothened [4] was above 5000 nM throughout.

For `C[C@H]1CN(c2nnc(Cc3ccccc3)c3ccccc23)CCN1c1ccc(C#N)cn1`, the concentration for half-maximal inhibition (IC50) worked out at 66 nM at Protein smoothened [1], 735 nM at Protein smoothened [2], 59 nM on Protein smoothened [3] and 79 nM at Protein smoothened [4].

With `NC(=O)c1ccc(N2CCN(c3nnc(Cc4ccccc4)c4ccccc34)CC2)nc1`, the IC50 at Protein smoothened [1] was 173 nM; against Protein smoothened [2], 149 nM; at Protein smoothened [3] it was 724 nM; at Protein smoothened [4], 46 nM.

Turning to `NS(=O)(=O)c1ccc(N2CCN(c3nnc(Cc4ccccc4)c4ccccc34)CC2)nc1`, the IC50 turned out to be 90 nM at Protein smoothened [1], 919 nM against Protein smoothened [2], 306 nM on Protein smoothened [3] and 104 nM at Protein smoothened [4].

Consider `C[C@H]1CN(c2ccc(C#N)cn2)CCN1c1nnc(Cc2ccccc2)c2ccccc12`, for which the 50% inhibitory concentration (IC50) on Protein smoothened [1] came out at 22 nM; against Protein smoothened [2] it was 210 nM; on Protein smoothened [3] it was 17 nM; at Protein smoothened [4] it was 25 nM.

Consider `N#Cc1ccc(N2CCN(c3nnc(Cc4ccc(F)cc4)c4ccccc34)CC2)nc1`, for which the IC50 on Protein smoothened [1] is 69 nM; against Protein smoothened [2], 975 nM; at Protein smoothened [3] it was 103 nM; on Protein smoothened [4], 112 nM.

In the case of `FC(F)(F)c1ccc(N2CCN(c3nnc(Cc4ccccc4)c4occc34)CC2)nc1`, the concentration for half-maximal inhibition (IC50) was determined as 139 nM on Protein smoothened [1], 2560 nM on Protein smoothened [2], 230 nM on Protein smoothened [3] and 212 nM on Protein smoothened [4].

As for `c1ccc(N2CCN(c3nnc(Cc4ccncc4)c4ccccc34)CC2)nc1`, the IC50 was 3690 nM at Protein smoothened [1], 4490 nM against Protein smoothened [2], above 5000 nM at Protein smoothened [3] and 690 nM on Protein smoothened [4].

With `c1ccc(Cc2nnc(N3CCN(c4ccccn4)CC3)c3ccccc23)cc1`, the IC50 at Protein smoothened [1] was 643 nM; on Protein smoothened [2], 772 nM; at Protein smoothened [3], 1240 nM; on Protein smoothened [4], 258 nM.

For `COC(=O)c1ccc(Cc2nnc(N3CCN(c4ccc(C#N)cn4)CC3)c3ccccc23)cc1`, the IC50 is 165 nM on Protein smoothened [1], above 5000 nM at Protein smoothened [2], 2930 nM at Protein smoothened [3] and 265 nM at Protein smoothened [4].

As for `N#Cc1ccc(N2CCN(c3ncc(Cc4ccccc4)c4ccccc34)CC2)nc1`, the 50% inhibitory concentration (IC50) was above 5000 nM on Protein smoothened [1], 2990 nM against Protein smoothened [2], above 5000 nM on Protein smoothened [3] and 1430 nM at Protein smoothened [4].

For the molecule `N#Cc1ccc(Cc2nnc(N3CCN(c4ccc(C#N)cn4)CC3)c3ccccc23)cc1`, the IC50 on Protein smoothened [1] is 23 nM; on Protein smoothened [2], 256 nM; on Protein smoothened [3] it was 34 nM; at Protein smoothened [4] it was 20 nM.

For the molecule `c1ccc(Cc2nnc(N3CCN(c4ccccc4)CC3)c3ccccc23)cc1`, the IC50 was 1100 nM on Protein smoothened [1], 2250 nM against Protein smoothened [2], 4240 nM on Protein smoothened [3] and 414 nM on Protein smoothened [4].

Turning to `C[C@@H]1CN(c2ccc(C#N)cn2)CCN1c1nnc(Cc2ccccc2)c2ccccc12`, the concentration for half-maximal inhibition (IC50) at Protein smoothened [1] turned out to be 180 nM; against Protein smoothened [2], 738 nM; on Protein smoothened [3] it was 217 nM; at Protein smoothened [4], 86 nM.

Turning to `N#Cc1ccc(N2CCCN(c3nnc(Cc4ccccc4)c4ccccc34)CC2)nc1`, the IC50 at Protein smoothened [1] is 153 nM; against Protein smoothened [2], 1630 nM; at Protein smoothened [3], 391 nM; at Protein smoothened [4] it was 210 nM.

With `CC(=O)NCc1ccc(N2CCN(c3nnc(Cc4ccccc4)c4ccccc34)CC2)nc1`, the half-maximal inhibitory concentration (IC50) on Protein smoothened [1] turned out to be 96 nM; at Protein smoothened [2], 327 nM; at Protein smoothened [3] it was 196 nM; at Protein smoothened [4], 35 nM.

Take `FC(F)(F)c1ccc(N2CCN(c3nnc(Cc4ccccc4)c4ccccc34)CC2)nc1`: the IC50 on Protein smoothened [1] was 74 nM; on Protein smoothened [2] it was 1330 nM; at Protein smoothened [3] it was 95 nM; on Protein smoothened [4], 134 nM.

On to `CC(O)c1ccc(N2CCN(c3nnc(Cc4ccccc4)c4ccccc34)CC2)nc1` (stereo not drawn), for which the concentration for half-maximal inhibition (IC50) on Protein smoothened [1] came out at 61 nM; at Protein smoothened [2], 222 nM; on Protein smoothened [3] it was 67 nM; on Protein smoothened [4], 38 nM.

As for `OC1(c2ccc(N3CCN(c4nnc(Cc5ccccc5)c5ccccc45)CC3)nc2)CC1`, the half-inhibitory concentration (IC50) at Protein smoothened [1] is 10 nM; against Protein smoothened [2], 345 nM; at Protein smoothened [3], 21 nM; at Protein smoothened [4], 55 nM.

Regarding `C[C@@H]1CN(c2nnc(Cc3ccccc3)c3ccccc23)CCN1c1ccc(C#N)cn1`, the IC50 was 17 nM on Protein smoothened [1], 244 nM on Protein smoothened [2], 34 nM on Protein smoothened [3] and 30 nM on Protein smoothened [4].

As to `N#Cc1ccc(N2CCN(c3nnc(Cc4cccc(Cl)c4)c4ccccc34)CC2)nc1`, the IC50 at Protein smoothened [1] was found to be 54 nM; at Protein smoothened [2], 693 nM; at Protein smoothened [3] it was 82 nM; at Protein smoothened [4] it was 112 nM.

Take `N#Cc1ccc(C2CCN(c3nnc(Cc4ccccc4)c4ccccc34)CC2)cc1`: the IC50 is above 5000 nM on Protein smoothened [1], above 5000 nM against Protein smoothened [2], above 5000 nM on Protein smoothened [3] and 3780 nM on Protein smoothened [4].

With `N#Cc1ccc(N2CCC(c3cn(Cc4ccccc4)c4ccccc34)CC2)nc1`, the IC50 is 386 nM at Protein smoothened [1], 1510 nM against Protein smoothened [2], 401 nM at Protein smoothened [3] and 382 nM on Protein smoothened [4].

For `OCc1ccc(N2CCN(c3nnc(Cc4ccccc4)c4ccccc34)CC2)nc1`, the half-maximal inhibitory concentration (IC50) was 187 nM on Protein smoothened [1], 2450 nM on Protein smoothened [2], 484 nM on Protein smoothened [3] and 374 nM at Protein smoothened [4].
